# Data published in patent publication US8921071B2, “Targeting poly-gamma-glutamic acid to treat Staphylococcus epidermidis and related infections” (priority 2005, dated 2014).
# No end group written: not given here.
# Test system: S. epidermidis
# Assay: Peptide bacterial killing assay
# Type: cell-based, Staphylococcus epidermidis
# Conditions: S. epidermidis Δcap versus wild-type; approximately 10^5 cells; 0-40 μg/ml peptide; 2 hours at 37° C.; survivors counted by plating
# Experimental: S. epidermidis cultures were harvested, washed with PBS buffer, and resuspended in 10 mM sodium phosphate buffer (pH 7.0). Bacterial killing assays were performed using a final concentration of approximately 10^5 S. epidermidis cells in each sample. Antimicrobial peptides were dissolved in the following solutions: human β-defensin 3, 10 mM acetic acid, and LL-37, 10% acetonitrile with 0.1% trifluoroacetic acid. The bacteria were exposed to a range of antimicrobial peptide concentrations (0, 5, 10, 20, 30, and 40 μg/ml). An equal volume of the respective peptide dilution buffer was applied to control samples. Samples were incubated at 37° C. for 2 hours and appropriate dilution series of the samples were plated on TSB agar. Survivor S. epidermidis cells were enumerated after 24 hours of incubation at 37° C. The percentage of killed S. epidermidis was calculated using the formula (1−[CFUpeptide/CFUcontrol])×100.
# Resistance to cationic antimicrobial peptides was determined by incubating washed S. epidermidis cells (approximately 10^5) with LL-37 or human β-defensin 3 in various concentrations of antimicrobial peptides for 2 hours at 37° C. Thereafter, S. epidermidis survivor cells were counted by plating. Results are shown as dose-response curves. […] Values of significance were calculated against the wild-type (for Δcap) and Δcap (for capBCAD) strains.
row,Substance,resistance of the cap mutant strain to antibacterial peptide
1,"LL-37 (LLGDFFRKSKEKIGKEFKRIVQRIKDFLRNLVPRTES; Antibacterial peptide LL-37; UniProt P49913 134-170, looked up) [representative cationic antibacterial peptide from human skin and neutrophil specific granules]",significantly reduced resistance
2,"human β-defensin 3 (GIINTLQKYYCRVRGGRCAVLSCLPKEEQIGKCSTRGRKCCRRKK; ends and bridges not checked; cysteine pairing not given here; UniProt P81534 23-67, looked up) [representative cationic antibacterial peptide from human skin and neutrophil specific granules]",significantly reduced resistance
